Measurements from patent publication US20250257061A1, “COMPOSITIONS AND METHODS FOR TREATING CANCER AND REDUCING WNT MEDIATED EFFECTS” (StemSynergy Therapeutics, Inc., priority 2024, published 2025).
Where two headings read alike, the source gives them in different places. One block for each compound: values may come before it.

Tests used:
[1] = system: Wnt-dependent HCT116 cell line; assay: Viability assay using Wnt-dependent HCT116 cell line (Cell Titer Glo); assay type: cell-based
How it was run: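 HCT116 cells at 2,500 cells/well were treated on day 2 with DMSO-diluted compounds further diluted 500-fold in medium, giving a final 0.1% DMSO. Viability was read on day 5 by Cell Titer Glo luminescence.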

[2] = system: Wnt reporter (TCF/LEF1 promoter); assay: HEK STF293 Wnt reporter (TOPFlash) luciferase assay, Steady Glo normalised to Cell Titer; assay type: cell-based, human
How it was run: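 HEK STF293 cells carrying a TCF/LEF1-driven firefly luciferase were stimulated with Wnt3a-conditioned media (1:1) and compound at final 100 μM to 1 nM. Next day, lysates were read by Steady Glo luminescence. EC50 was derived from Steady Glo divided by Cell Titer to normalize for cell number.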

[3] = Examples for Formulae (IV), (V), (VI), and (VII), HCT116 cells, read-out: Viability IC50 category
[4] = Examples for Formulae (IV), (V), (VI), and (VII), HEK STF293 cells, Wnt3a-conditioned media, read-out: TOPFlash IC50 category
[5] = Homo sapiens, HCT-116, Examples for Formulae (I), (II), and (III), HCT116 cells, read-out: Viability IC50 category
[6] = Homo sapiens, STF/293, Examples for Formulae (I), (II), and (III), HEK STF293 cells, Wnt3a-conditioned media, read-out: TOPFlash IC50 category
[7] = Homo sapiens, HCT-116, read-out: Viability IC50 category
[8] = Homo sapiens, STF/293, read-out: TOPFlash IC50 category
[9] = Homo sapiens, HCT-116, Examples for Formulae (IV), (V), (VI), and (VII), HCT116 cells, read-out: Viability IC50 category
[10] = Homo sapiens, STF/293, Examples for Formulae (IV), (V), (VI), and (VII), HEK STF293 cells, Wnt3a-conditioned media, read-out: TOPFlash IC50 category

Structure (SMILES): CN(c1nc(-c2ccc(S(C)(=O)=O)cc2)c(C(=O)Nc2nc(-c3ccccn3)cs2)o1)S(=O)(=O)c1ccc(F)cc1 [Example 74]
- IC50 [1, 3]: < 0.2 µM
- IC50 [2, 4]: < 0.2 µM

Structure (SMILES): Cc1onc(-c2c(Cl)cccc2Cl)c1C(=O)Nc1nc(-c2ccccn2)cs1 [Example 29]
- IC50 [1, 7]: < 0.2 µM
- IC50 [2, 8]: < 0.2 µM

Structure (SMILES): Cc1nn(Cc2ccc(C(F)(F)F)cc2)c(C)c1C(=O)Nc1nc(-c2ccccn2)cs1 [Example 16]
- IC50 [1, 5]: 0.5 to 1 µM
- IC50 [2, 6]: 0.5 to 1 µM

Structure (SMILES): CN1CCN(c2cccc(-c3ncoc3C(=O)Nc3nc(-c4ccccn4)cs3)c2)CC1 [Example 45]
- IC50 [1, 3]: 1 to 10 µM
- IC50 [2, 4]: 1 to 10 µM

Structure (SMILES): O=C(Nc1nc(-c2ccccn2)cs1)c1oc(CO)nc1-c1ccc(F)cc1 [Example 70, 4-(4-fluorophenyl)-2-(hydroxymethyl)-N-(4-(pyridin-2-yl)thiazol-2-yl)oxazole-5-carboxamide]
- IC50 [1, 7]: 0.2 to 0.5 µM
- IC50 [2, 8]: 0.5 to 1 µM

Structure (SMILES): CN(c1nc(C(F)(F)F)c(C(=O)Nc2nc(-c3ccccn3)cs2)o1)S(=O)(=O)c1ccc(Cl)cc1 [Example 53]
- IC50 [1, 3]: 0.5 to 1 µM
- IC50 [2, 4]: 0.5 to 1 µM

Structure (SMILES): O=C(Nc1nc(-c2ccccn2)cs1)c1ocnc1-c1ccccc1 [Example 2]
- IC50 [1, 9]: 0.2 to 0.5 µM
- IC50 [2, 10]: < 0.2 µM

Structure (SMILES): O=C(Nc1nc(-c2ccccn2)cs1)c1ocnc1-c1ccc(F)cc1F [Example 12]
- IC50 [1, 9]: 0.2 to 0.5 µM
- IC50 [2, 10]: 0.2 to 0.5 µM

Structure (SMILES): COc1ccc(S(=O)(=O)N(C)c2ncc(C(=O)O)o2)cc1 [Example 40]
- IC50 [1, 3]: 0.2 to 0.5 µM
- IC50 [2, 4]: 0.2 to 0.5 µM

Structure (SMILES): CN(C(=O)c1ccccc1F)c1ncc(C(=O)Nc2nc(-c3ccccn3)cs2)o1 [Example 36]
- IC50 [1, 9]: 0.5 to 1 µM
- IC50 [2, 10]: 0.2 to 0.5 µM

Structure (SMILES): Cc1onc(-c2ccc(C(F)(F)F)c(Cl)c2)c1C(=O)Nc1nc(-c2ccccn2)cs1 [Example 63]
- IC50 [1, 9]: 0.2 to 0.5 µM
- IC50 [2, 10]: 0.2 to 0.5 µM

Now from value to compound, other results behind:

- IC50 [1, 5]: 0.5 to 1 µM
Structure (SMILES): Cc1nn(Cc2ccc(F)cc2)c(C)c1C(=O)Nc1nc(-c2ccccn2)cs1 [Example 7]
- IC50 [2, 6]: 0.5 to 1 µM

- IC50 [1, 3]: < 0.2 µM
Structure (SMILES): C#Cc1ccc(-c2nc(C)oc2C(=O)Nc2nc(-c3ccccn3)cs2)cc1 [Example 68]
- IC50 [2, 4]: < 0.2 µM

- IC50 [1, 9]: 0.2 to 0.5 µM
Structure (SMILES): Cc1nc(-c2ccc(-c3nnc[nH]3)cc2)c(C(=O)Nc2nc(-c3ccccn3)cs2)o1 [Example 67]
- IC50 [2, 10]: 0.2 to 0.5 µM

- IC50 [1, 9]: < 0.2 µM
Structure (SMILES): Cc1nc(-c2ccc(Cl)cc2)c(C(=O)Nc2nc(-c3ccccn3)cs2)o1 [Example 9]
- IC50 [2, 10]: < 0.2 µM

- IC50 [1, 9]: 0.2 to 0.5 µM
Structure (SMILES): Cc1onc(-c2cccc(F)c2)c1C(=O)Nc1nc(-c2ccccn2)cs1 [Example 5]
- IC50 [2, 10]: 0.2 to 0.5 µM

- IC50 ([1]; Homo sapiens, HCT-116, Examples for Formulae (VIII), (IX), and (X), HCT116 cells, read-out: Viability IC50 category): 0.5 to 1 µM
Structure (SMILES): O=C(Nc1nc(-c2ccccn2)cs1)c1ccc(=O)n(-c2ccc(F)cc2)c1 [Example 2]
- IC50 ([2]; Homo sapiens, STF/293, Examples for Formulae (VIII), (IX), and (X), HEK STF293 cells, Wnt3a-conditioned media, read-out: TOPFlash IC50 category): 0.2 to 0.5 µM

- IC50 [1, 5]: 0.2 to 0.5 µM
Structure (SMILES): Cn1nc(C(=O)Nc2nc(-c3ccccn3)cs2)c(-c2ccc(F)cc2)n1 [Example 19]
- IC50 [2, 6]: 0.2 to 0.5 µM
